Among the data in ChEMBL document CHEMBL3044859, “Antimicrobial activity of Schiff bases of coumarin-incorporated 1,3,4-oxadiazole derivatives: an in vitro evaluation” (2013) are inhibition of growth and zone of inhibition values, retold here.

Assay type in all cases: functional
Assay [1] concerns Staphylococcus aureus. The assay is described as follows: Growth inhibition of Staphylococcus aureus […] at 100 ug/ml by cup-plate method relative to control. The note with it: read-out: GI.
Another assay relates to Escherichia coli. The assay is described as follows: Antibacterial activity against Escherichia coli […] at 100 ug/ml by cup-plate method. The following applies: read-out: DIZ.
Assay [2] concerns Candida albicans. The experiment in a line: Antifungal activity against Candida albicans ATCC 10231 at 100 ug/ml by cup-plate method. The note with it: read-out: DIZ.
Assay [3] relates to Staphylococcus aureus. The assay is described as follows: Antibacterial activity against Staphylococcus aureus […] at 100 ug/ml by cup-plate method. The note with it: read-out: DIZ.
Assay [4] concerns Candida albicans. The experiment in a line: Growth inhibition of Candida albicans ATCC 10231 at 100 ug/ml by cup-plate method relative to control. The note with it: read-out: GI.

As to `NNC(=O)c1cc2ccccc2oc1=O`, the inhibition of growth at 100 µg/mL with Staphylococcus aureus [1] and in the assay with Candida albicans [4] was 40% in each case. Further, the values for the zone of inhibition at 100 µg/mL in the assay on Escherichia coli, in the assay on Candida albicans [2] and in the assay with Staphylococcus aureus [3] were 9 mm, 8 mm and 10 mm, respectively.

Turning to `COc1ccccc1/C=N/c1nnc(-c2cc3ccccc3oc2=O)o1`, the inhibition of growth at 100 µg/mL in the assay with Staphylococcus aureus [1] stood at 56%; with Candida albicans [4], 65%. Besides, the zone of inhibition at 100 µg/mL in the assay with Escherichia coli came to 15 mm; in the assay on Candida albicans [2] it was 13 mm; in the assay with Staphylococcus aureus [3] it was 14 mm.

Turning to `COc1cccc(/C=N/c2nnc(-c3cc4ccccc4oc3=O)o2)c1`, the inhibition of growth at 100 µg/mL came out at 56% with Staphylococcus aureus [1] and 70% in the assay on Candida albicans [4]. Moreover, the figures for the zone of inhibition at 100 µg/mL in the assay on Escherichia coli, in the assay on Candida albicans [2] and with Staphylococcus aureus [3] were 15 mm, 14 mm and 14 mm, respectively.

For `O=c1oc2ccccc2cc1-c1nnc(/N=C/c2ccccc2F)o1`, the figures for the inhibition of growth at 100 µg/mL in the assay on Staphylococcus aureus [1] and in the assay on Candida albicans [4] were 48% and 65%, respectively. Besides, the figures for the zone of inhibition at 100 µg/mL with Escherichia coli, with Candida albicans [2] and with Staphylococcus aureus [3] were 10 mm, 13 mm and 12 mm, respectively.

Turning to `O=c1oc2ccccc2cc1-c1nnc(/N=C/c2ccc([N+](=O)[O-])cc2)o1`, in the assay with Staphylococcus aureus [1], the inhibition of growth at 100 µg/mL is 64%. In addition, the values for the zone of inhibition at 100 µg/mL in the assay on Escherichia coli and in the assay with Staphylococcus aureus [3] were 12 mm and 17 mm, respectively.

As to `O=c1oc2ccccc2cc1-c1nnc(/N=C/c2cccc(F)c2)o1`, the inhibition of growth at 100 µg/mL with Staphylococcus aureus [1] was found to be 48%; with Candida albicans [4] it was 55%. The zone of inhibition at 100 µg/mL turned out to be 10 mm with Escherichia coli, 11 mm with Candida albicans [2] and 12 mm with Staphylococcus aureus [3].

As to `O=c1oc2ccccc2cc1-c1nnc(/N=C/c2ccccc2)o1`, the inhibition of growth at 100 µg/mL in the assay with Staphylococcus aureus [1] was determined as 80%; with Candida albicans [4], 60%. Also, the zone of inhibition at 100 µg/mL in the assay with Escherichia coli came to 20 mm; in the assay on Candida albicans [2], 12 mm; in the assay on Staphylococcus aureus [3], 20 mm.

For `O=c1oc2ccccc2cc1-c1nnc(/N=C/c2cccc(Cl)c2)o1`, the values for the zone of inhibition at 100 µg/mL with Escherichia coli and with Candida albicans [2] were 17 mm and 14 mm, respectively. In the assay with Candida albicans [4], the inhibition of growth at 100 µg/mL was 70%.

`O=c1oc2ccccc2cc1-c1nnc(/N=C/c2ccc(Cl)cc2)o1`: the values for the zone of inhibition at 100 µg/mL in the assay on Escherichia coli and in the assay on Candida albicans [2] were 17 mm and 15 mm, respectively. In addition, the inhibition of growth at 100 µg/mL in the assay on Candida albicans [4] was found to be 75%.

Turning to `O=c1oc2ccccc2cc1-c1nnc(/N=C/c2ccccc2Cl)o1`, the values for the zone of inhibition at 100 µg/mL with Escherichia coli and in the assay on Candida albicans [2] were 17 mm and 13 mm, respectively. Moreover, the inhibition of growth at 100 µg/mL in the assay on Candida albicans [4] turned out to be 65%.

Consider `O=c1oc2ccccc2cc1-c1nnc(/N=C/c2ccc(F)cc2)o1`, for which the inhibition of growth at 100 µg/mL with Staphylococcus aureus [1] was 48%; with Candida albicans [4] it was 50%. Moreover, the zone of inhibition at 100 µg/mL in the assay on Escherichia coli was determined as 15 mm; in the assay with Candida albicans [2], 10 mm; in the assay on Staphylococcus aureus [3], 12 mm.

As to `COc1ccc(/C=N/c2nnc(-c3cc4ccccc4oc3=O)o2)cc1`, the inhibition of growth at 100 µg/mL in the assay with Staphylococcus aureus [1] was 56%; with Candida albicans [4], 60%. Further, the results for the zone of inhibition at 100 µg/mL in the assay on Escherichia coli, in the assay on Candida albicans [2] and in the assay with Staphylococcus aureus [3] were 10 mm, 12 mm and 14 mm, respectively.

Regarding `CN(C)c1ccc(/C=N/c2nnc(-c3cc4ccccc4oc3=O)o2)cc1`, the values for the inhibition of growth at 100 µg/mL with Staphylococcus aureus [1] and in the assay on Candida albicans [4] were 48% and 80%, respectively. For the same compound, the zone of inhibition at 100 µg/mL in the assay on Escherichia coli was 12 mm; with Candida albicans [2], 16 mm; in the assay with Staphylococcus aureus [3] it was 12 mm.

Take `O=c1oc2ccccc2cc1-c1nnc(/N=C/c2ccccc2[N+](=O)[O-])o1`: the inhibition of growth at 100 µg/mL in the assay with Staphylococcus aureus [1] was 64%. The zone of inhibition at 100 µg/mL turned out to be 14 mm in the assay on Escherichia coli and 17 mm in the assay on Staphylococcus aureus [3].

Turning to `O=c1oc2ccccc2cc1-c1nnc(/N=C/c2cccc(O)c2)o1`, the results for the inhibition of growth at 100 µg/mL with Staphylococcus aureus [1] and in the assay on Candida albicans [4] were 40% and 55%, respectively. Also, the zone of inhibition at 100 µg/mL was found to be 15 mm in the assay on Escherichia coli, 11 mm in the assay on Candida albicans [2] and 10 mm in the assay with Staphylococcus aureus [3].

As for `O=c1oc2ccccc2cc1-c1nnc(/N=C/c2ccccc2O)o1`, the inhibition of growth at 100 µg/mL amounted to 40% with Staphylococcus aureus [1] and 50% with Candida albicans [4]. Moreover, the zone of inhibition at 100 µg/mL with Escherichia coli turned out to be 12 mm; with Candida albicans [2], 10 mm; in the assay with Staphylococcus aureus [3], 10 mm.

Consider `COc1ccc(/C=N/c2nnc(-c3cc4ccccc4oc3=O)o2)cc1OC`, for which the inhibition of growth at 100 µg/mL in the assay with Staphylococcus aureus [1] amounted to 48%; in the assay on Candida albicans [4], 50%. The figures for the zone of inhibition at 100 µg/mL in the assay with Escherichia coli, in the assay on Candida albicans [2] and in the assay on Staphylococcus aureus [3] were 10 mm, 10 mm and 12 mm, respectively.

Regarding `O=c1oc2ccccc2cc1-c1nnc(/N=C/c2ccc(O)cc2)o1`, the values for the inhibition of growth at 100 µg/mL in the assay on Staphylococcus aureus [1] and in the assay with Candida albicans [4] were 40% and 45%, respectively. Moreover, the zone of inhibition at 100 µg/mL came out at 10 mm with Escherichia coli, 9 mm in the assay on Candida albicans [2] and 10 mm with Staphylococcus aureus [3].

Consider `O=c1oc2ccccc2cc1-c1nnc(/N=C/c2cccc([N+](=O)[O-])c2)o1`, for which, in the assay on Staphylococcus aureus [1], the inhibition of growth at 100 µg/mL turned out to be 64%. Besides, the zone of inhibition at 100 µg/mL in the assay with Escherichia coli came to 12 mm; with Staphylococcus aureus [3], 17 mm.

Consider `O=C(O)c1cn(C2CC2)c2cc(N3CCNCC3)c(F)cc2c1=O` [CIPROFLOXACIN], for which the inhibition of growth at 100 µg/mL in the assay on Staphylococcus aureus [1] came to 100%. The zone of inhibition at 100 µg/mL with Staphylococcus aureus [3] was 25 mm.

For the compound `CC(=O)N1CCN(c2ccc(OCC3COC(Cn4ccnc4)(c4ccc(Cl)cc4Cl)O3)cc2)CC1` (configuration not stated) [KETOCONAZOLE], in the assay with Candida albicans [2], the zone of inhibition at 100 µg/mL was determined as 20 mm. The inhibition of growth at 100 µg/mL in the assay with Candida albicans [4] was determined as 100%.
